Columns and labels:
OATP1B1 [1] = target: T1, OATP1B1 (Homo sapiens, UniProt Q9Y6L6, N130D); assay: OATP1B1 inhibition, conventional RI method (radiolabeled estradiol-17β-D-glucuronide)
T1 sequence (Q9Y6L6 1-691 N130D): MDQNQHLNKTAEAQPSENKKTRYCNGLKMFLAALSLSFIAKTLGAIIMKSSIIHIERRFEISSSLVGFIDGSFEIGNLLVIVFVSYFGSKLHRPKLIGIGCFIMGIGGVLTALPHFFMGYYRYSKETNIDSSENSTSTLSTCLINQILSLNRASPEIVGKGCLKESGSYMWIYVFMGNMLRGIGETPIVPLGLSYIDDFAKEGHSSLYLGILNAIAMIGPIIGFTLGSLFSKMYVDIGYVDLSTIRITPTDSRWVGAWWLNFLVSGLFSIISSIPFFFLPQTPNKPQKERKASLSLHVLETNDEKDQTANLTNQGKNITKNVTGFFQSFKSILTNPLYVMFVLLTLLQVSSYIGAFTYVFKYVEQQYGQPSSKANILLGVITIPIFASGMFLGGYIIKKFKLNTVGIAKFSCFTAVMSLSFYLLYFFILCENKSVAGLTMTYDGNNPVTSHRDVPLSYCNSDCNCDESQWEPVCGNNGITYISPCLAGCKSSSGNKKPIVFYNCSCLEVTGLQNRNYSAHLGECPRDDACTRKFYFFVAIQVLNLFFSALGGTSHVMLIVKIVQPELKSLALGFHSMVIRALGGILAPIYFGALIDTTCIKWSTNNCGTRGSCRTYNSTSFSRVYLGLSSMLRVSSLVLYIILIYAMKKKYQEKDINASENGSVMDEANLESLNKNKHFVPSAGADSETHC
Experimental: In the conventional RI method, radiolabeled estradiol-17β-D-glucuronide (EG) was used. […] Subsequently, the cells were washed with an ice-cold KH buffer three times and then solubilized with an aqueous 0.1 N NaOH solution, and after neutralization with an aqueous 1 N HCl solution, the radioactivity taken up by the cells was measured.

human hepatocytes [2] = assay: Effect of OATP inhibitors on DCF uptake by human hepatocytes; details: inhibitor final 10 μM, 37° C.; reduced to the level comparable to the uptake at 4° C.
Experimental: (§1) Human hepatocytes were prepared as in Example 6, and a hepatocyte suspension was prepared at 1×10^6 cells/mL.

OATP1B1 [3] = target: T1, OATP1B1; assay: OATP1B1 inhibition, DCF method (fluorescent substrate)
human hepatocytes [4] = assay: Time/temperature-dependent uptake of DCF by human hepatocytes; assay type: in vitro ADME; details: 37° C. versus 4° C., 0.5 to 5 min, cryopreserved human hepatocytes
Experimental: Cryopreserved human hepatocytes and cryopreserved hepatocytes recovery medium (CHRM) were purchased from Invitrogen Corporation. The cryopreserved human hepatocytes were thawed in a water bath at 37° C. and were added to the CHRM prewarmed at 37° C. After centrifugation at room temperature, the supernatant was discarded, and a hepatocyte suspension at 1×10^6 cells/mL was prepared in ice-cold KH buffer and stored on ice. […] The hepatocytes were incubated at 37° C. and 4° C., respectively, for 0 to 5 minutes. […] Specifically, 80 μL of the hepatocyte suspension was collected and added to a centrifugal tube containing 50 μL of oil (specific gravity: 1.015, Sigma-Aldrich Co.) and 100 μL of an aqueous 2 N NaOH solution under the oil layer, and centrifugation was performed at 10,000 g for 20 seconds. By the centrifugation, the hepatocytes passed through the oil layer and were solubilized with an aqueous 2 N NaOH solution.

human hepatocytes [5] = tested on: human hepatocytes
Experimental: as §1

OATP1B1 [6] = target: T1, OATP1B1
Experimental: The Km and Vmax were calculated by the following Michaelis-Menten equation. […] Each parameter represents the mean value of four independent experiments.

OAT3 = target: T2, OAT3 (Homo sapiens, UniProt Q8TCC7); assay: Substrate specificity of fluorescein derivatives on OAT3 (same method); details: FIG. 1(b), same method as Example 1
T2 sequence (Q8TCC7 1-542): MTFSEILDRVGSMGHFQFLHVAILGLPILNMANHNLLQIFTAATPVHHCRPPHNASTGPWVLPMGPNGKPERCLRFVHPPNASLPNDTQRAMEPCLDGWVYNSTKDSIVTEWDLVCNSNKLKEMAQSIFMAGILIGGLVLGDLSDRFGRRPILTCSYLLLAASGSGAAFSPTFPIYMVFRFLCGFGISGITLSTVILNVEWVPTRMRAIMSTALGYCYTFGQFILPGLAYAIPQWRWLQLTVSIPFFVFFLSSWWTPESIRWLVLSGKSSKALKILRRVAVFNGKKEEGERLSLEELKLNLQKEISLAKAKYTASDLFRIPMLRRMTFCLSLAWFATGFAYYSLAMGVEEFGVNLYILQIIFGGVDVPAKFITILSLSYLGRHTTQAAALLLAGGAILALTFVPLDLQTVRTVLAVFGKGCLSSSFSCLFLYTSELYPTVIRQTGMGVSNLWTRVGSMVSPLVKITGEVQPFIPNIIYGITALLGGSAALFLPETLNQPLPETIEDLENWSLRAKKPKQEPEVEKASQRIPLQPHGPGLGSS
Experimental: The above cells were seeded in a poly-D-lysine-coated dish at 4×10^5 cells/well. The medium was replaced with a KH buffer, and various fluorescent dyes dissolved in DMSO were added to the respective HEK-293 cells such that the final concentration in the KH buffer was 1 μM, followed by incubation at 37° C. for 5 minutes. Subsequently, the cells were washed with an ice-cold KH buffer three times and were then solubilized with an aqueous 0.1 N NaOH solution, and the fluorescence intensity of the fluorescent dye taken up by the cells was measured (excitation wavelength: 490 nm, fluorescence wavelength: 515 nm).
In order to quantitatively measure the amount of fluorescent compound taken up by the cells, a calibration curve showing the fluorescence intensity per unit fluorescent compound was prepared in advance. Based on this calibration curve, the measured fluorescence intensity was converted into the fluorescent compound per well (pmol/well or μL/well), which was divided by the total protein amount (mg protein/well) of the solubilized cells (standardization) to convert into the fluorescent compound amount per unit protein (pmol/mg protein or μL/mg protein).

OATP1B1 [7] = target: T1, OATP1B1; assay: Substrate specificity of fluorescein derivatives: uptake by HEK-293 cells forcedly expressing OATP1B1; assay type: in vitro ADME; design: Expression vectors, pcDNA3.1 vectors (Invitrogen Corporation), carrying the resulting genes were respectively introduced into HEK-293 cells; expressed in transfected cells; host or cells: HEK-293 cells, pcDNA3.1 vector, hygromycin selection; details: 1 μM dye, 37° C., 5 minutes, compared with OATP1B3 and OATP2B1
Experimental: Complementary DNAs of OATP1B1, OATP1B3, and OATP2B1 (respectively shown by SEQ ID NOs: 2, 3, and 4) were cloned by RT-PCR using human liver total RNA (Invitrogen Corporation) as a template and the following primers: […]
Expression vectors, pcDNA3.1 vectors (Invitrogen Corporation), carrying the resulting genes were respectively introduced into HEK-293 cells by lipofection using Lipofectamin 2000 (Invitrogen Corporation). The cells were cultured in Hygromycin-containing selective media to produce HEK-293 cells forcedly expressing OATP1B1, OATP1B3, and OATP2B1, respectively.

OATP1B1 [8] = target: T1, OATP1B1; assay: Time profiles of the uptake of DCF by OATP1B1; assay type: in vitro ADME; design: Expression vectors, pcDNA3.1 vectors (Invitrogen Corporation), carrying the resulting genes were respectively introduced into HEK-293 cells; expressed in transfected cells; host or cells: HEK-293 cells, pcDNA3.1 vector, hygromycin selection; details: 0.1, 1 and 10 μM DCF, 37° C., 1 to 30 min
Experimental: The cells were sampled at the incubation times of 1 min, 5 min, 10 min, and 30 min, washed with an ice-cold KH buffer three times, and then solubilized with an aqueous 0.1 N NaOH solution, and the fluorescence intensity of the fluorescent dye taken up by the cells was measured as in Example 1 (excitation wavelength: 490 nm, fluorescence wavelength: 515 nm).

OATP1B1 [9] = target: T1, OATP1B1; assay: Effect of known OATP inhibitors on OATP1B1-mediated uptake of DCF; details: DCF 3 μM, inhibitor 10 and 30 μM
[10] = read-out: Ki (EG), substrate radiolabeled EG 0.01 μM, HEK-293 cells forcedly expressing OATP1B1, 37° C., 5 minutes
[11] = read-out: Ki (DCF), substrate DCF 3 μM, HEK-293 cells forcedly expressing OATP1B1, 37° C., 5 minutes

SMILES	Ki (OATP1B1 [1]) [µM]	Ki (OATP1B1 [3]) [µM]	other results
O=C1OC(c2ccc(O)c(S(=O)(=O)O)c2)(c2ccc(O)c(S(=O)(=O)O)c2)c2c(Br)c(Br)c(Br)c(Br)c21 [BSP, bromosulfophthalein]			Ki (OATP1B1 [1]; [10]): 0.073 µM; DCF uptake by human hepatocytes in presence of inhibitor (human hepatocytes [2]): reduced; Ki (OATP1B1 [3]; [11]): 0.092 µM
CN/C(=N/CCSCc1nc[nH]c1C)NC#N [Cimetidine]	> 300	> 300	
O=C1OC2(c3cc(Cl)c(O)cc3Oc3cc(O)c(Cl)cc32)c2ccccc21 [DCF, Dichlorofluorescein]			transporter-mediated uptake of DCF by human hepatocytes (human hepatocytes [4]): increases over time; Km (human hepatocytes [5]): 38.6 µM; Km (OATP1B1 [6]): 7.22 µM; substrate for OAT3 (OAT3): not a satisfactory substrate; uptake of fluorescent dye among the combinations of fluorescent dye and transporters tested (OATP1B1 [7]): highest uptake; uptake amount of DCF by HEK-293 cells forcedly expressing OATP1B1 (OATP1B1 [8]): increases over time and depends on the concentration of added DCF
C[C@]12CC[C@@H]3c4ccc(OS(=O)(=O)O)cc4CC[C@H]3[C@@H]1CCC2=O [ES, estrone-3-sulfate]			Ki (OATP1B1 [1]; [10]): 0.078 µM; Ki (OATP1B1 [3]; [11]): 0.079 µM; concentration dependence of inhibition of OATP1B1-mediated DCF uptake (OATP1B1 [9]): inhibition depends on the concentrations
CC[C@H]1OC(=O)[C@H](C)[C@@H](O[C@H]2C[C@@](C)(OC)[C@@H](O)[C@H](C)O2)[C@H](C)[C@@H](O[C@@H]2O[C@H](C)C[C@H](N(C)C)[C@H]2O)[C@](C)(O)C[C@@H](C)C(=O)[C@H](C)[C@@H](O)[C@]1(C)O [Erythromycin]	4.14	6.99	
CC(=O)N1CCN(c2ccc(OCC3COC(Cn4ccnc4)(c4ccc(Cl)cc4Cl)O3)cc2)CC1 (stereo not drawn) [Ketoconazole]	12.2	15.6	
CN(Cc1cnc2nc(N)nc(N)c2n1)c1ccc(C(=O)N[C@@H](CCC(=O)O)C(=O)O)cc1 [Methotrexate]	> 300	> 300	
CO[C@H]1/C=C/O[C@@]2(C)Oc3c(C)c(O)c4c(O)c(c(/C=N/N5CCN(C)CC5)c(O)c4c3C2=O)NC(=O)/C(C)=C\C=C\[C@H](C)[C@H](O)[C@@H](C)[C@@H](O)[C@@H](C)[C@H](OC(C)=O)[C@@H]1C [Rifampicin, rifampicin]	0.29	0.26	
C=CC[C@@H]1/C=C(\C)C[C@H](C)C[C@H](OC)[C@H]2O[C@@](O)(C(=O)C(=O)N3CCCC[C@H]3C(=O)O[C@H](/C(C)=C/[C@@H]3CC[C@@H](O)[C@H](OC)C3)[C@H](C)[C@@H](O)CC1=O)[C@H](C)C[C@@H]2OC [Tacrolimus]	0.89	1.27	
C[C@H](CCC(=O)NCCS(=O)(=O)O)[C@H]1CC[C@H]2[C@@H]3[C@H](O)C[C@@H]4C[C@H](O)CC[C@]4(C)[C@H]3C[C@H](O)[C@]12C [Taurocholic acid]	17.5	8.68	
C[C@]12CC[C@@H]3c4ccc(O)cc4CC[C@H]3[C@@H]1CC[C@@H]2O[C@@H]1O[C@H](C(=O)O)[C@@H](O)[C@H](O)[C@H]1O [estradiol-17β-D-glucuronide]			concentration dependence of inhibition of OATP1B1-mediated DCF uptake (OATP1B1 [9]): inhibition depends on the concentrations

Reference: patent publication US8945865B2, “Method for screening for compound capable of enhancing or inhibiting OATP1B1 transport activity, and method for determining expression level of OATP1B1” (Eisai R&D Management Co., Ltd., priority 2011, dated 2015)
